Data reported in patent US7504095B2, “Method for obtaining precursor Z and use thereof for the production of a means for therapy of human molybdenum cofactor deficiency” (Technische Universitaet Braunschweig, priority 2004, dated 2009).

Tests used:
[1] = test system: MPT-synthesis in MOCS1-deficient liver extracts; assay: In vitro reconstitution of MOCS1-deficient liver extract, nit-1 reconstitution assay; assay type: biochemical, mice; settings: five day old animal, 6 mg liver extract protein, in vitro conditions
Procedure: (§1) FIG. 6: Restoration of the MPT-biosynthesis in vitro and in vivo. (a) In vitro restoration of MOCS1-deficient liver extracts with precursor Z. Protein raw extract of a five day old MOCS1^−/− were incubated (1 h) with the indicated amounts of purified precursor Z per mg protein. Restoration of MPT-synthesis was measured by means of nit-1 reconstitution assay. (b-d) Biochemical analysis of precursor Z treated MOCS1-deficient animals. The mice were twice weekly injected with increasing amounts of precursor Z, beginning with 2 μg after birth and up to 8 μg after weaning. Between the days 25-55 after birth the treatment was stopped. On day 0 (4 hours after the last injection), 1, 4 and 7 respectively, two mice were sacrificed. Two liver samples of each animal were removed and separately further processed. Each value in the figure was thus determined four times. Total-MPT inclusive Moco (b), sulphite oxidase activity (c) and xanthine dehydrogenase (d) are indicated as percentage of the corresponding wildtype value (n=4).
The biological activity of the purified precursor Z could be verified by a quantitive in vitro conversion to MPT tinder use of purified E. coli MPT-Synthase^B26 . […] In order to determine the amount of precursor Z needed for a successful reestablishment of Moco-biosynthesis in MOCS1-deficient mice, we carried out an in vitro reconstitution with various amount of precursor Z in protein-raw extract from the liver of five day old MOCS1-deficient mice carried out (FIG. 6a). In the case of the employment of 134 ng precursor Z/mg protein a near complete reestablishment of Moco-biosynthesis could be achieved, while 27 ng precursor Z led to a reconstitution of approximately 50%. The protein total concentration of the liver extract amounted to 6 mg (obtained from 50 mg total liver tissue) which necessitated a total required amount of precursor Z of 0.8 μg for each animal for complete reestablishment of the MPT-synthesis under in vitro conditions. Accordingly for an adult animal with a body weight of 20 g and an approximate mass or weight of the liver of 1 g, 16 μg precursor Z was needed for complete reestablishment, however only 3 μg for an activation of 50%. […] Although the in vitro titration experiment yielded no information regarding which part of the Moco is transmitted to the Apo-sulfhite-oxidase, the investigated or established amount of precursor Z related to the maximal capacity of the MPT-production in the liver of MOCS1-deficient mice.

MOCS1-deficient mice [2] = assay: Lifespan and phenotype of MOCS1-/- mice injected with precursor Z into the liver; assay type: in vivo; settings: for Average Lifespan: injected into the liver
Procedure: The half-life of sulphite oxidase in rat liver was determined to be 3-4 days^B27.
The lowest dose amounted to 0.2 μg precursor Z, administered every second day. […] With the administration of 1-2 μg every third day the mice achieved a greater age and were suckled until day 20-30, thereafter the MOCS1^−/ animals however appeared slower in their flight reaction and in their internalization of their environment than the corresponding control animals. This difference disappeared about day 40, after which all MOCS1^−/− animals were as agile and full of life as the control individuals. […] The injection of 2-4 μg precursor Z every third day ws found to be the most successful treatment.

sulphite oxidase = assay: Sulphite oxidase activity in liver after last injection; assay type: in vivo, mice
Procedure: as §1, with “Total-MPT inclusive Moco (b), sulphite oxidase activity (c) and xanthine dehydrogenase (d) are indicated as percentage of the corresponding wildtype value (n=4).” left out
(§2) In homozygote MOCS1^−/−-animals, in which precursor Z was injected regularly and which appeared normal with regard to weight, appearance and behavior, the treatment was halted and the animals were sacrificed sequentially at days 0, 1, 4 and 7 after the last injection in order to determine the MPT-content and the Mo-enzyme activity in the liver (FIG. 6b-d). Due to the rapid conversion of the administered precursor Z to MPT, the highest MPT-value was measured on the day of the injection (16±1% of the wildtype; FIG. 6b). […]

MOCS1-deficient mice [3] = assay: Open field test; assay type: in vivo; set-up: dose or concentration left out as unconfirmed; settings: precursor Z every third day
MOCS1-deficient mice [4] = assay: Light/dark box test; assay type: in vivo; settings: treated MOCS1-deficient mice
Procedure: (§3) Avoidance of light was tested in the light/dark box, in which the animals were placed into the light area and the time was determined until the animals sought out the darker area. […] The results were compared with wild-type controls. The mice were sequentially introduced into all four sectors and the time was measured until the animals found and climbed onto the platform (FIG. 7). […] In a second test series, the average swim time was reduced to 20-25% of the first test both in the “knockout” mice as well as with the control animals. In a third test series, the platform was removed and the time was measured that the mice spent in the “correct” sector—the sector that previously contained the platform. Both groups spent approximately 50% of the time in the correct sector.

[5] = low pH-values; cited from earlier work
[6] = Oxidation of precursor Z in D2O/DCl on exposure to air, followed by 1H-NMR; assay type: physicochemical; settings: D2O and DCl, exposed to air
Procedure: One- (1D) and two-dimensional (2D) ^1H-NMR-correlation spectra (COSY) were recorded at 300 K with a Bruker Avance DMX 600 NMR-spectrometer, which is linked to the dominating resonance of deuterium from the solvent D2O. Chemical shifts are indicated in ppm relative to the background signal of the solvent (4.80 ppm) and couplings in Hz. Precursor Z containing samples (100-200 μg) were freeze-dried and resuspended in 700 μl degassed D2O and 2 μl 36% DCl. For avoidance of oxidation, the pipette was gased for 5 minuites with nitrogen. These solutions were stable enough for recording both 1D- and 2D-COSY-spectra. Subsequent exposure of the solution to air caused the oxidation of the precursor Z to the well-described main single product, compound Z, and this reaction was monitored at regular intervals by recording 1D-^1H-spectra. Under normal conditions, this reaction is concluded after 14 days in D2O and DCl.

MOCS1-deficient mice [7] = assay: Running wheel test; assay type: in vivo; settings: 10 and 20 RPM
MOCS1-deficient mice [8] = assay: Xanthin and uric acid in urine of treated knockout mice; assay type: in vivo; settings: data not shown
xanthine dehydrogenase = assay: Xanthine dehydrogenase activity in liver after last injection; assay type: in vivo, mice
Procedure: as §1, with “Total-MPT inclusive Moco (b), sulphite oxidase activity (c) and xanthine dehydrogenase (d) are indicated as percentage of the corresponding wildtype value (n=4).” left out
as §2

MOCS1-deficient mice [9] = assay: Water labyrinth learning test; assay type: in vivo
Procedure: FIG. 7: Ability to train precursor Z-treated MOCS1-deficient mice in a water labyrinth. The values represented a cross section of six wildtype- (wt, black bars) and six precursor Z treated MOCS1-deficient mice (MOCS1 ^−/−, white bars). […] C, time (of a total of 120 seconds), spent in the correct sector (without platform), which were learned in passes A and B.
as §3

Nc1nc2c(c(=O)[nH]1)N[C@@H]1[C@H](N2)O[C@@H]2COP(=O)(O)O[C@@H]2C1(O)O [precursor Z]
total required amount of precursor Z per animal for complete reestablishment of MPT-synthesis [1]: 0.8 µg
development and weight gain (MOCS1-deficient mice [2]; 0.2 μg every second day, 11 mice): developed normally
Average Lifespan (MOCS1-deficient mice [2]; 0.2 μg every second day): 17.7 days
Average Lifespan (MOCS1-deficient mice [2]; 1 μg (prior to weaning) and 2 μg (after weaning) every third day): 32.9 days
Average Lifespan (MOCS1-deficient mice [2]; 1 μg every third day): 25.2 days
Average Lifespan (MOCS1-deficient mice [2]; 2 μg every second day): 47.4 days
fraction of treated animals that died between day 20 and 40 (MOCS1-deficient mice [2]; 1-2 μg every third day): Approximately half
deaths between days 40-70 (MOCS1-deficient mice [2]; 2-4 μg every third day): no animal died
offspring of pairings of treated animals (MOCS1-deficient mice [2]; 2-4 μg every third day): normally developed, healthy off-spring
difference in weight, behavior or other phenotypic characteristics versus wild type or heterozygous siblings (MOCS1-deficient mice [2]; prior to weaning): no difference could be determined
sulphite oxidase activity, course (sulphite oxidase; day 0 to day 1 after the last injection): rise
sulphite oxidase activity (% of wildtype) versus reconstituted MPT-content (sulphite oxidase; liver): higher than the reconstituted MPT-content
open field: movement, learning and social behavior versus wildtype (MOCS1-deficient mice [3]): no significant differences
light/dark box: time until seeking the darker area versus wild type (MOCS1-deficient mice [4]): no significant difference
estimated half time [5]: several hours
time until oxidation to compound Z is concluded [6]: 14 days
running wheel: limitations of movement (MOCS1-deficient mice [7]): Limitations of movement were not shown
uric acid in the urine (MOCS1-deficient mice [8]): not measurable
xanthin in the urine (MOCS1-deficient mice [8]): very high
xanthin dehydrogenase activity, course (xanthine dehydrogenase; after day 1): rapidly decreased
xanthin-dehydrogenase activity (% of wildtype) versus reconstituted MPT-content (xanthine dehydrogenase; liver): higher than the reconstituted MPT-content
water labyrinth: finding the platform versus wild-type controls (MOCS1-deficient mice [9]; first series of tests): more rapidly than the wild-type control animals
water labyrinth: average swim time as % of the first test (MOCS1-deficient mice [9]; second test series): 20-25%
water labyrinth: time spent in the correct sector (MOCS1-deficient mice [9]; third test series, platform removed): approximately 50%
